Source: patent US10206862B2, “Supplement to support healthy hair, skin, and nails” (priority 2016, dated 2019)

Assays:
keratinocytes = experiment: Reduction in ATP depletion after peroxide stress (CellTiter-Glo); assay type: cell-based; conditions: 1 hour treatment, net luminescence = treatment counts minus vehicle control counts
Method: Hydrogen peroxide is a well-known ROS and is commonly used as a model to analyze the effects of various ROS. In this test, keratinocytes were cultured (passage <8) in T150 flasks using EpiLife® medium (Calcium Free and Phenol Red Free, supplemented with penicillin/streptomycin and keratinocytes growth supplement, Invitrogen™ cat# MEPICFPRF500). The keratinocytes were then plated in 24 well plates, 40,000 cells/well, 1 ml media. After 24 hours, the keratinocytes were treated with organic astaxanthin and astaxanthin in combination with Digestive Support Blend (see Example 1 above), Stress and Energy Support Blend (see Example 1 above), Reishi, or biotin for 1 hour. The keratinocytes were washed in PBS and ATP levels were measured using the CellTiter-Glo® Luminescent Cell Viability Assay (available from Promega, cat# G7571/2/3) per manufacturer's directions. Luminescence was measured on a SpectraMax® M3 (available from Molecular Devices, Sunnyvale, Calif., USA). Net luminescence (or net ATP) is calculated by subtracting the luminescence counts from the vehicle control from the luminescence counts from the treatment groups.

[1] = test system: PGE2 release from UVB stressed keratinocytes; experiment: PGE2 assay in UVB stressed keratinocytes; assay type: cell-based; conditions: telomerized human keratinocytes, UVB 15 mJ/cm^2, 24 hours treatment; PGE2 (pg/mL) normalized to ATP; FIG. 3
Method: Telomerized human keratinocytes are propgated in EpiLife® Media in CO2-incubator at 37° C. in T150 flasks (available from Corning®, Corning, N.Y., USA). […] The plates were incubated another 2 days until cell confluency reaches >80%. At this point, the cells were irradiated with a Bio-Sun™ UV with UVB light for a dose of 15 mJ/cm^2. The media was then switched with fresh medium prepared with the treatments. The cells were then incubated for 24 hours before harvest. At harvest, the media supernatant was collected and transferred to a deep well plate and frozen in −80° C. for later determination of PGE2 levels. PGE2 levels were measured from the media supernatants using the PGE2 Assay kit (available from Cisbio™, Bedford, Mass.) per manufacturer's directions. PGE2 levels here were normalized to the ATP measurements such that the final PGE2 values were recorded as PGE2 (pg/mL)/ATP level treatment compared to control. Typically, each data point is the average of 4 replicates.

[2] = test system: Antioxidant Response Element (ARE); experiment: ARE reporter assay (ARE-32 luciferase reporter cell line); assay type: cell-based, rat; conditions: ARE32 (MCF7) luciferase reporter cells, 24 hours treatment; Nrf2 antioxidant response activation
Method: ARE activation was quantitated using the ARE-32 reporter cell line available from CXR-Biosciences as described in the ARE Assay below. ARE32 is a stable MCF7 cell line containing pGL8x-ARE (8 copies of the rat GST ARE linked to the luciferase gene) and pCDNA3.1, which contains the neomycin selectable marker. Selection was performed in the presence of G418 and resistant clones were isolated. Clones were screened for induction of luciferase in response to tBHQ (tert-Butylhydroquinone). The ARE32 cells are maintained routinely in the DMEM (phenol red free) containing: 10% FBS, 50 units/ml penicillin & 50 μg/ml streptomycin, 0.8 mg/ml G418. […] Cells were frozen in medium that contains 90% FBS and 10% dimethyl sulfoxide (DMSO). In a 96 well-plate, seed 1×10^4 cells/well in 100 μl DMEM containing 50 units/ml penicillin, 50 μg/ml streptomycin, 0.8 mg/ml G418 and 10% FBS. Next, incubate the cells at 37° C. in a 5% CO2 incubator for 24 hrs, and then replace the medium with 100 μl fresh media. Treat with test compounds at 2 μl per well, positive control was 25 μM TBHQ. (10 mM tBHQ of stock solution freshly prepared in DMSO). Add 100 μl of media after treatment for a final assay volume of 200 μL. Incubate the cells at 37° C. in CO2 incubator for another 24 hours. […]

O=C(O)CCCC[C@@H]1SC[C@@H]2NC(=O)N[C@@H]21 [Biotin]
Net ATP (keratinocytes): 947
PGE2 release from keratinocytes [1]: reduce PGE2
ARE - Fold Over Control [2]: 1.71 Fold Over Control

CC1=C(/C=C/C(C)=C/C=C/C(C)=C/C=C/C=C(C)/C=C/C=C(C)/C=C/C2=C(C)C(=O)[C@@H](O)CC2(C)C)C(C)(C)C[C@H](O)C1=O [Organic Astaxanthin, Astaxanthin]
Net ATP (keratinocytes): 1096
PGE2 release from keratinocytes [1]: reduce PGE2
ARE - Fold Over Control [2]: 2.65 Fold Over Control
